# From US20070054926A1 (priority 2003, published 2007)
# Where two headings read alike, the source gives them in different places.
# Tested on: Phytophthora infestans
# Assay type: in vivo
# Conditions: individual active compound, protective, assessed 6 days after infection
SMILES,Efficacy in % of the untreated control (16 ppm in the spray liquor) [%],Efficacy in % of the untreated control (4 ppm in the spray liquor) [%],Efficacy in % of the untreated control (63 ppm in the spray liquor) [%]
"Fc1ccc([C@]2(Cn3cncn3)O[C@H]2c2ccccc2Cl)cc1 (racemic) [compound II, (2RS,3SR)-1-[3-(2-chlorophenyl)-2,3-epoxy-2-(4-fluorophenyl)-propyl]-1H-1,2,4-triazole]",10,,
CC1CCN(c2c(-c3c(F)cccc3Cl)c(Cl)nc3ncnn23)CC1 [A],0,0,0
"CC1CCN(c2c(-c3c(F)cc(F)cc3F)c(Cl)nc3ncnn23)CC1 [compound I, 5-chloro-7-(4-methylpiperidin-1-yl)-6-(2,4,6-trifluorophenyl)-[1,2,4]triazolo[1,5-a]pyrimidine]",10,0,10
C[C@H](Nc1c(-c2c(F)cc(F)cc2F)c(Cl)nc2ncnn12)C(F)(F)F [B],0,0,10
